Assay results from patent US10759816B2, “Heterocyclic compounds as RSV inhibitors” (Enanta Pharmaceuticals, Inc., priority 2016, dated 2020).

Each compound was assayed on genotype A, "Long" strain RSV (assay: RSV-A in vitro cytoprotection assay in HEp-2 cells (ATPlite readout of cell viability)). Conditions: human respiratory syncytial virus, HEp-2, HEp-2 cells, genotype A “Long” strain RSV, cytoprotection; read-out: Human RSV-A (“Long” strain) EC50.
Type: cell-based, Human respiratory syncytial virus
Procedure, shortened: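 HEp-2 cells (8,000/well) given 2-fold compound dilutions in duplicate, then infected with RSV-A Long strain stock; viability read by ATPlite luminescence after 4 days. EC50 derived from cytoprotection; cytotoxicity measured on parallel uninfected plate.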
Compound `Cc1cccc(F)c1NC(=O)c1cc2c(s1)-c1ccccc1N(C(=O)c1cccc(-c3cn(C(=O)OC(C)C)nc3C3CC3)n1)CC2` [Example 223] has an EC50 of less than 400 nM. `Cc1cccc(F)c1NC(=O)c1cc2c(s1)-c1ccccc1N(C(=O)c1cccc(N(C)Cc3cccnc3)n1)CC2` [Example 338] gave an EC50 of less than 400 nM. For `Cc1cccc(F)c1NC(=O)c1cc2c(s1)-c1ccccc1N(C(=O)c1ccc(-c3c[nH]nc3C)cc1)CC2` [Example 269], the EC50 was greater than 800 nM. Compound `O=C(NC1CCC1)c1cc2c(s1)-c1ccccc1N(C(=O)c1cccc(-c3c[nH]nc3C3CC3)n1)CC2` [Example 178] has an EC50 of less than 400 nM. `Cc1cnc2[nH]cc(-c3cccc(C(=O)N4CCc5cc(C(=O)Nc6c(C)cccc6F)sc5-c5ccccc54)n3)c2c1` [Example 245] gave an EC50 of less than 400 nM. In the case of `O=C(NC1CC1)c1cc2c(s1)-c1ccccc1N(S(=O)(=O)c1cccc(N3CCCOCC3)n1)CC2` [Example 102], the EC50 is reported as greater than 800 nM. In the case of `O=C(NC1CC1)c1cc2c(s1)-c1ccccc1N(C(=O)c1cccc(-c3nncn3C3CC3)n1)CC2` [Example 126], the EC50 is reported as greater than 800 nM. `Cn1nccc1-c1cccc(C(=O)N2CCc3cc(C(=O)Nc4ccccc4N)sc3-c3ccccc32)n1` [Example 242] was tested, and the EC50 was less than 400 nM. Work on `COc1ccc2c(c1)CN(c1cccc(C(=O)N3CCc4cc(C(=O)NC5CC5)sc4-c4ccccc43)n1)CCO2` [Example 280] yielded an EC50 of less than 400 nM. Compound `O=C(NCc1ccccc1)c1cc2c(s1)-c1ccccc1N(C(=O)c1cccc(N3CCOc4ccccc4C3)n1)CC2` [Example 305] has an EC50 of 400 to 800 nM. For `Cc1cccc(F)c1NC(=O)c1cc2c(s1)-c1ccccc1N(C(=O)c1cccc(N3CCS(=O)(=O)c4ccccc4C3)n1)CC2` [Example 419], the EC50 was less than 400 nM. Work on `COc1ccc(-c2cccc(C(=O)N3CCc4cc(C(=O)N(C)C)sc4-c4ccccc43)n2)cn1` [Example 95] yielded an EC50 of 400 to 800 nM. Work on `Cc1cccc(F)c1NC(=O)c1cc2c(s1)-c1ccccc1N(C(=O)c1cccc(NCC3(S(C)(=O)=O)CC3)n1)CC2` [Example 466] yielded an EC50 of less than 400 nM. With `COc1ccc(-c2cccc(C(=O)N3CCc4cc(C(=O)Nc5c(C)cccc5F)sc4-c4ccccc43)n2)cn1` [Example 264] the EC50 was greater than 800 nM. `O=C(NC1CC1)c1cc2c(s1)-c1ccccc1N(C(=O)c1cccc(Nc3cccc4c3C(=O)NC4)n1)CC2` [Example 411] showed an EC50 greater than 800 nM. Work on `O=C(NC1CC1)c1cc2c(s1)-c1ccccc1N(C(=O)c1cccc(N3CCC4(CC3)COC4)n1)CC2` [Example 18] yielded an EC50 of 400 to 800 nM. `Cc1cccc(F)c1NC(=O)c1cc2c(s1)-c1ccccc1N(C(=O)c1cccc(-n3cc(S(C)(=O)=O)cn3)n1)CC2` [Example 144] showed an EC50 greater than 800 nM. `Cc1cccc(F)c1NC(=O)c1cc2c(s1)-c1ccccc1N(C(=O)c1cccc(N3CCCN(C(=O)OC(C)(C)C)CC3)n1)CC2` [Example 380] was tested, and the EC50 was less than 400 nM. `COc1ccc(CN(C)c2cccc(C(=O)N3CCc4cc(C(=O)Nc5c(C)cccc5F)sc4-c4ccccc43)n2)cc1` [Example 344] was tested, and the EC50 was less than 400 nM. Work on `Cc1cccc(F)c1NC(=O)c1cc2c(s1)-c1ccccc1N(C(=O)c1cccc(N3CCN(S(C)(=O)=O)Cc4ccccc43)n1)CC2` [Example 379] yielded an EC50 greater than 800 nM. Compound `O=C(NC1CC1)c1cc2c(s1)-c1ccccc1N(C(=O)c1ccnc(N3CCOCC3)n1)CC2` [Example 51] has an EC50 of 400 to 800 nM. With `O=C(NC1CC1)c1cc2c(s1)-c1ccccc1N(C(=O)c1cccc(-c3cnn(C4COC4)c3)n1)CC2` [Example 158] the EC50 was greater than 800 nM. `Cc1cccc(F)c1NC(=O)c1cc2c(s1)-c1ccccc1N(C(=O)c1cccc(N3CCC4C(C3)C4(F)F)n1)CC2` (stereo not drawn) [Example 374] was tested, and the EC50 was 400 to 800 nM. With `Cn1ccc(-c2cccc(C(=O)N3CCc4cc(C(=O)NC5CC5)sc4-c4ccccc43)n2)cc1=O` [Example 162] the EC50 was greater than 800 nM. Compound `CNC(=O)c1cc2c(s1)-c1ccccc1N(C(=O)c1cccc(-c3ccc(OC)nc3)n1)CC2` [Example 94] has an EC50 greater than 800 nM. Work on `O=C(NC1CC1)c1cc2c(s1)-c1ccccc1N(C(=O)c1cccc(-c3cnn(C4CCOCC4)c3)n1)CC2` [Example 76] yielded an EC50 of 400 to 800 nM. With `Cc1cccc(F)c1NC(=O)c1cc2c(s1)-c1ccccc1N(C(=O)c1cccc(-c3c[nH]nc3N3CCOCC3)n1)CC2` [Example 211] the EC50 was greater than 800 nM. Compound `O=C(NC1CC1)c1cc2c(s1)-c1ccccc1N(C(=O)c1cccc(-c3ccc(C(=O)N4CCOCC4)cc3)n1)CC2` [Example 68] has an EC50 of 400 to 800 nM. `O=C(NC1CC1)c1cc2c(s1)-c1ccccc1N(C(=O)c1cccc(-c3nncn3C3COC3)n1)CC2` [Example 128] gave an EC50 greater than 800 nM. With `O=C(NC1CC1)c1cc2c(s1)-c1ccccc1N(C(=O)c1cccc(-c3cccnc3)n1)CC2` [Example 154] the EC50 was greater than 800 nM. `Cc1cccc(F)c1NC(=O)c1cc2c(s1)-c1ccccc1N(C(=O)c1cccc(N3CCS(=O)(=O)c4ccc(F)cc4C3)n1)CC2` [Example 436] gave an EC50 of less than 400 nM. For `O=C(NC1CNC1)c1cc2c(s1)-c1ccccc1N(C(=O)c1cccc(-c3c[nH]nc3C3CC3)n1)CC2` [Example 182], the EC50 was greater than 800 nM. In the case of `Cc1cccc(F)c1NC(=O)c1cc2c(s1)-c1ccccc1N(C(=O)c1cccc(N3CCCOc4ccccc43)n1)CC2` [Example 404], the EC50 is reported as less than 400 nM. Work on `Cc1cccc(F)c1NC(=O)c1cc2c(s1)-c1ccccc1N(C(=O)c1cccc(N(C)CCS(C)(=O)=O)n1)CC2` [Example 333] yielded an EC50 of less than 400 nM. `Cc1cccc(F)c1NC(=O)c1cc2c(s1)-c1ccccc1N(C(=O)c1cccc(N3CCOCC(F)(F)C3)n1)CC2` [Example 400] gave an EC50 of less than 400 nM. Compound `COCCn1cc(-c2cccc(C(=O)N3CCc4cc(C(=O)Nc5c(C)cccc5F)sc4-c4ccccc43)n2)c(C2CC2)n1` [Example 226] has an EC50 greater than 800 nM. Compound `Cc1cccc(F)c1NC(=O)c1cc2c(s1)-c1ccccc1N(C(=O)c1cccc(-c3ccc4c(c3)COC4)n1)CC2` [Example 192] has an EC50 of 400 to 800 nM. `O=C(NC1CC1)c1cc2c(s1)-c1ccccc1N(C(=O)c1cccc(-c3nncn3C3CCOCC3)n1)CC2` [Example 124] showed an EC50 greater than 800 nM. `CN1CCCN(c2cccc(C(=O)N3CCc4cc(C(=O)NC5CC5)sc4-c4ccccc43)n2)CC1` [Example 36] gave an EC50 of 400 to 800 nM. With `O=C(NC1CC1)c1cc2c(s1)-c1ccccc1N(C(=O)c1cc(N3CCOCC3)ccn1)CC2` [Example 48] the EC50 was greater than 800 nM. Work on `Cc1cccc(F)c1NC(=O)c1cc2c(s1)-c1ccccc1N(C(=O)c1cccc(-n3ccnc3C3CC3)n1)CC2` [Example 146] yielded an EC50 of less than 400 nM. Compound `Cc1cccc(F)c1NC(=O)c1cc2c(s1)-c1cc(F)ccc1N(C(=O)c1cccc(-c3c[nH]nc3C3CC3)n1)CC2` [Example 263] has an EC50 of less than 400 nM. With `COc1ccc2c(ccn2-c2cccc(C(=O)N3CCc4cc(C(=O)Nc5c(C)cccc5F)sc4-c4ccccc43)n2)c1` [Example 120] the EC50 was less than 400 nM. `CC(C)n1nccc1-c1cccc(C(=O)N2CCc3cc(C(=O)Nc4ccccc4N)sc3-c3ccccc32)n1` [Example 241] showed an EC50 of less than 400 nM. For `Cc1cccc(F)c1NC(=O)c1cc2c(s1)-c1ccccc1N(C(=O)c1cccc(N3CCCN(C(=O)C4CC4)CC3)n1)CC2` [Example 388], the EC50 was less than 400 nM. Compound `O=C(NC1CC1)c1cc2c(s1)-c1ccccc1N(C(=O)c1cccc(NC3CCOCC3)n1)CC2` [Example 61] has an EC50 greater than 800 nM. `Cc1cccc(F)c1NC(=O)c1cc2c(s1)-c1ccccc1N(C(=O)c1cccc(N3CCCC(C)(O)CC3)n1)CC2` (stereo not drawn) [Example 444] gave an EC50 of less than 400 nM. `Cc1ccncc1-c1cccc(C(=O)N2CCc3cc(C(=O)NC4CC4)sc3-c3ccccc32)n1` [Example 156] showed an EC50 greater than 800 nM. In the case of `Cc1cccc(F)c1NC(=O)c1cc2c(s1)-c1ccccc1N(C(=O)c1cccc(NC[C@@H]3CCCO3)n1)CC2` [Example 459], the EC50 is reported as less than 400 nM. In the case of `Cc1cccc(F)c1NC(=O)c1cc2c(s1)-c1ccccc1N(C(=O)c1cccc(N(C)CC3Cc4ccccc4O3)n1)CC2` (stereo not drawn) [Example 117], the EC50 is reported as less than 400 nM. `O=C(NC1CC1)c1cc2c(s1)-c1ccccc1N(C(=O)c1cccc(N3CCOCc4ccccc43)n1)CC2` [Example 320] showed an EC50 greater than 800 nM. Compound `N[C@@H]1CCN(c2cccc(C(=O)N3CCc4cc(C(=O)NC5CC5)sc4-c4ccccc43)n2)C1` [Example 38] has an EC50 greater than 800 nM. For `Cc1cccc(F)c1NC(=O)c1cc2c(s1)-c1ccccc1N(C(=O)c1cccc(NCc3cccc4ccccc34)n1)CC2` [Example 345], the EC50 was greater than 800 nM. `COCCOc1ccc(-c2cccc(C(=O)N3CCc4cc(C(=O)NC5CC5)sc4-c4ccccc43)n2)cn1` [Example 74] gave an EC50 of 400 to 800 nM. `COCCCNc1cccc(C(=O)N2CCc3cc(C(=O)NC4CC4)sc3-c3ccccc32)n1` [Example 35] gave an EC50 of 400 to 800 nM. In the case of `COc1ccc(-c2cccc(C(=O)N3CCc4cc(C(=O)NCC5CC5)sc4-c4ccccc43)n2)cn1` [Example 96], the EC50 is reported as 400 to 800 nM. `O=C(NC1CC1)c1ccc2c(c1)-c1ccccc1N(C(=O)c1cccc(N3CCCOCC3)n1)CC2` [Example 104] gave an EC50 greater than 800 nM. `Cc1cccc(F)c1NC(=O)c1cc2c(s1)-c1ccccc1N(C(=O)c1cccc(N3C[C@@H](O)C[C@@H]3C)n1)CC2` [Example 495] showed an EC50 of less than 400 nM. With `Cc1cccc(F)c1NC(=O)c1cc2c(s1)-c1ccccc1N(C(=O)c1cccc(N3CCOc4ccccc4C3)n1)CC2` [Example 363] the EC50 was less than 400 nM. `CCS(=O)(=O)CCN(C)c1cccc(C(=O)N2CCc3cc(C(=O)Nc4c(C)cccc4F)sc3-c3ccccc32)n1` [Example 325] gave an EC50 of less than 400 nM. For `Cc1cccc(F)c1NC(=O)c1cc2c(s1)-c1ccccc1N(C(=O)c1cccc(-c3c[nH]c4c(Cl)cccc34)n1)CC2` [Example 251], the EC50 was less than 400 nM. Work on `O=C(NC1CC1)c1cc2c(s1)-c1ccccc1N(C(=O)c1cccc(-c3csc(N4CCOCC4)n3)n1)CC2` [Example 167] yielded an EC50 greater than 800 nM. `COc1ccc(-c2cccc(C(=O)N3CCc4cc(C(=O)NC5CC5)sc4-c4ccccc43)n2)cc1` [Example 62] showed an EC50 of 400 to 800 nM. Work on `O=C(NC1CC1)c1cc2c(s1)-c1ccccc1N(C(=O)c1cccc(-c3nncn3CC3CCOCC3)n1)CC2` [Example 127] yielded an EC50 greater than 800 nM. Work on `O=C(NC1CC1)c1cc2c(s1)-c1ccccc1N(C(=O)c1cccc(N3CCOc4ccccc43)n1)CC2` [Example 319] yielded an EC50 greater than 800 nM. `COc1ccc(C(=O)N2CCc3cc(C(=O)NC4CC4)sc3-c3ccccc32)nc1N1CCCOCC1` [Example 40] was tested, and the EC50 was 400 to 800 nM.
